Values after ≈ are worked out from the molar mass of the structure shown.
test system: Aureobasidium pullulans; assay: MIC against fungi (agar), Aureobasidium pullulans; type: cell-based; details: 336 h, beer wort/peptone agar, 2 weeks at 28° C., 60 to 70% relative humidity
Experimental: (§1) Active compounds, according to the invention, are added in concentrations of 0.1 mg/l to 5000 mg/l, to an agar prepared from beer wort and peptone. The MIC is determined after the agar has been stored for 2 weeks at 28° C. and 60 to 70% relative atmospheric humidity. MlC is the lowest concentration of active compound at which the species of microbe used undergoes no growth at all; it is shown in the table below.

SMILES | MIC
FC(F)(F)Oc1ccc2cnn(SC(Cl)(Cl)Cl)c2c1 [Example 1, 6-Trifluoromethoxy-1-trichloromethylsulphenylindazole] | 350 µg/mL (≈ 996 µM)
FC(F)(F)Oc1ccc2cnn(SC(F)(Cl)Cl)c2c1 [Example 2, 6-Trifluoromethoxy-1-dichlorofluoromethylsulphenylindazole] | 150 µg/mL (≈ 448 µM)
FC(F)(F)Oc1ccc2c(cnn2SC(F)(Cl)Cl)c1 [Example 5] | 20 µg/mL (≈ 59.7 µM)

Now from value to molecule:

MIC | SMILES
500 µg/mL (≈ 1350 µM) | FC(F)(F)Oc1ccc2c(cnn2SC(F)(Cl)Cl)c1Cl [Example 12]
50 µg/mL (≈ 177 µM) | Cc1cc(F)cc2c1cnn2SC(F)(Cl)Cl [Example 19]

test system: Trichoderma viride; assay: MIC against fungi (agar), Trichoderma viride; type: cell-based; details: 336 h, beer wort/peptone agar, 2 weeks at 28° C., 60 to 70% relative humidity
Experimental: as §1

MIC | SMILES
500 µg/mL (≈ 1770 µM) | Cc1cc(F)cc2c1cnn2SC(F)(Cl)Cl [Example 19]
50 µg/mL (≈ 149 µM) | FC(F)(F)Oc1ccc2c(cnn2SC(F)(Cl)Cl)c1 [Example 5]

test system: Aspergillus niger; assay: MIC against fungi (agar), Aspergillus niger; type: cell-based; details: 336 h, beer wort/peptone agar, 2 weeks at 28° C., 60 to 70% relative humidity
Experimental: as §1

SMILES | MIC
FC1Oc2cc3c(cnn3SC(F)(Cl)Cl)cc2OC1(F)F (centres unmarked) [Example 4] | 150 µg/mL (≈ 413 µM)
Fc1cccc2c1cnn2SC(F)(Cl)Cl [1-Dichlorofluoromethylsulphenyl-4-fluoroindazole, reference compound] | 500 µg/mL (≈ 1860 µM)
FC(F)(F)Oc1ccc2cnn(SC(Cl)(Cl)Cl)c2c1 [Example 1, 6-Trifluoromethoxy-1-trichloromethylsulphenylindazole] | 20 µg/mL (≈ 56.9 µM)
FC(F)(F)Oc1ccc2cnn(SC(F)(Cl)Cl)c2c1 [Example 2, 6-Trifluoromethoxy-1-dichlorofluoromethylsulphenylindazole] | 20 µg/mL (≈ 59.7 µM)
FC(F)(F)Oc1ccc2c(cnn2SC(F)(Cl)Cl)c1 [Example 5] | 20 µg/mL (≈ 59.7 µM)

The next lines start with the values.

MIC | SMILES
500 µg/mL (≈ 1360 µM) | Cc1cc(C(F)(F)F)c2cnn(SC(F)(Cl)Cl)c2c1Cl [Example 8]
50 µg/mL (≈ 135 µM) | FC(F)(F)Oc1ccc2c(cnn2SC(F)(Cl)Cl)c1Cl [Example 12]
< 20 µg/mL | FC(F)(F)Sc1ccc2cnn(SC(F)(Cl)Cl)c2c1 [Example 16]
< 20 µg/mL | FC(F)(F)Sc1ccc2c(cnn2SC(F)(Cl)Cl)c1 [Example 18]
50 µg/mL (≈ 144 µM) | Cc1cc2cnn(SC(F)(Cl)Cl)c2c(C)c1C(F)(F)F [Example 15]
10 µg/mL (≈ 35.3 µM) | Cc1cc(F)cc2c1cnn2SC(F)(Cl)Cl [Example 19]
500 µg/mL (≈ 1290 µM) | FC(Cl)(Cl)Sn1ncc2c(Cl)c(Cl)c(C(F)(F)F)cc21 [Example 17]

test system: Cladosporium; assay: MIC against fungi (agar), Cladosporium; type: cell-based; details: 336 h, beer wort/peptone agar, 2 weeks at 28° C., 60 to 70% relative humidity
Experimental: as §1

SMILES | MIC
FC(F)(F)Oc1ccc2cnn(SC(Cl)(Cl)Cl)c2c1 [Example 1, 6-Trifluoromethoxy-1-trichloromethylsulphenylindazole] | 20 µg/mL (≈ 56.9 µM)
FC(F)(F)Oc1ccc2cnn(SC(F)(Cl)Cl)c2c1 [Example 2, 6-Trifluoromethoxy-1-dichlorofluoromethylsulphenylindazole] | 20 µg/mL (≈ 59.7 µM)

Now from value to molecule:

MIC | SMILES
20 µg/mL (≈ 54.1 µM) | FC(F)(F)Oc1ccc2c(cnn2SC(F)(Cl)Cl)c1Cl [Example 12]
5 µg/mL (≈ 17.7 µM) | Cc1cc(F)cc2c1cnn2SC(F)(Cl)Cl [Example 19]

test system: Chaelomium globosum; assay: MIC against fungi (agar), Chaetomium globosum; type: cell-based; details: 336 h, beer wort/peptone agar, 2 weeks at 28° C., 60 to 70% relative humidity
Experimental: as §1

SMILES | MIC
FC1Oc2cc3c(cnn3SC(F)(Cl)Cl)cc2OC1(F)F (centres unmarked) [Example 4] | 100 µg/mL (≈ 275 µM)
Fc1cccc2c1cnn2SC(F)(Cl)Cl [1-Dichlorofluoromethylsulphenyl-4-fluoroindazole, reference compound] | 200 µg/mL (≈ 743 µM)
FC(F)(F)Oc1ccc2cnn(SC(Cl)(Cl)Cl)c2c1 [Example 1, 6-Trifluoromethoxy-1-trichloromethylsulphenylindazole] | 75 µg/mL (≈ 213 µM)
FC(F)(F)Oc1ccc2cnn(SC(F)(Cl)Cl)c2c1 [Example 2, 6-Trifluoromethoxy-1-dichlorofluoromethylsulphenylindazole] | 2 µg/mL (≈ 5.97 µM)
FC(F)(F)Oc1ccc2c(cnn2SC(F)(Cl)Cl)c1 [Example 5] | 20 µg/mL (≈ 59.7 µM)

Next, values leading:

MIC | SMILES
< 20 µg/mL | Cc1cc(C(F)(F)F)c2cnn(SC(F)(Cl)Cl)c2c1Cl [Example 8]
20 µg/mL (≈ 54.1 µM) | FC(F)(F)Oc1ccc2c(cnn2SC(F)(Cl)Cl)c1Cl [Example 12]
< 20 µg/mL | FC(F)(F)Sc1ccc2cnn(SC(F)(Cl)Cl)c2c1 [Example 16]
< 20 µg/mL | FC(F)(F)Sc1ccc2c(cnn2SC(F)(Cl)Cl)c1 [Example 18]
< 20 µg/mL | Cc1cc2cnn(SC(F)(Cl)Cl)c2c(C)c1C(F)(F)F [Example 15]
10 µg/mL (≈ 35.3 µM) | Cc1cc(F)cc2c1cnn2SC(F)(Cl)Cl [Example 19]
< 20 µg/mL | FC(Cl)(Cl)Sn1ncc2c(Cl)c(Cl)c(C(F)(F)F)cc21 [Example 17]

test system: Drechslera graminea (syn. Helminthosporium gramineum); assay: Drechslera graminea test (barley)/seed treatment; type: in vivo; details: application rate 500 mg/kg of seed, approx. 3 weeks after sowing, undressed 23.4
Experimental: Drechslera graminea test (barley)/seed treatment (syn. Helminthosporium gramineum)
The active compounds are applied in the form of dry dressing agents. They are formulated by diluting the particular active compound with ground minerals to give a finely powdered mixture, which ensures uniform distribution on the surface of the seed.
The infested seed is dressed by shaking it for 3 minutes with the dressing agent in a closed glass jar.
Embedded in sieved, moist standard soil, the seed is exposed to a temperature of 4° C. for 10 days in closed Petri dishes in a refrigerator. This initiates the germination of the barley sand, if appropriate, also that of the fungus spores. The pre-germinated barley is then sown in 2 lots of 50 grains 3 cm deep in standard soil and is cultivated in seed boxes which are exposed to light for 15 hours a day in a greenhouse at a temperature of approx. 18° C.
The plants are evaluated for symptoms of stripe disease approx. 3 weeks after sowing.

SMILES | Diseased plants as % of all the emerged plants
FC(F)(F)Oc1ccc2cnn(SC(F)(Cl)Cl)c2c1 [Example 2, 6-Trifluoromethoxy-1-dichlorofluoromethylsulphenylindazole] | 4.1%

test system: Polyporus versicolor; assay: MIC against fungi (agar), Polyporus versicolor; type: cell-based; details: Trametes versicolor, 336 h, beer wort/peptone agar, 2 weeks at 28° C., 60 to 70% relative humidity
Experimental: as §1

MIC | SMILES
2 µg/mL (≈ 5.97 µM) | FC(F)(F)Oc1ccc2c(cnn2SC(F)(Cl)Cl)c1 [Example 5]

test system: Lentinus tigrinus; assay: MIC against fungi (agar), Lentinus tigrinus; type: cell-based; details: 336 h, beer wort/peptone agar, 2 weeks at 28° C., 60 to 70% relative humidity
Experimental: as §1

SMILES | MIC
FC(F)(F)Oc1ccc2cnn(SC(Cl)(Cl)Cl)c2c1 [Example 1, 6-Trifluoromethoxy-1-trichloromethylsulphenylindazole] | 75 µg/mL (≈ 213 µM)
FC(F)(F)Oc1ccc2cnn(SC(F)(Cl)Cl)c2c1 [Example 2, 6-Trifluoromethoxy-1-dichlorofluoromethylsulphenylindazole] | 20 µg/mL (≈ 59.7 µM)
FC(F)(F)Oc1ccc2c(cnn2SC(F)(Cl)Cl)c1 [Example 5] | 0.1 µg/mL (≈ 0.298 µM)

The remaining lines, values ahead:

MIC | SMILES
7.5 µg/mL (≈ 20.3 µM) | FC(F)(F)Oc1ccc2c(cnn2SC(F)(Cl)Cl)c1Cl [Example 12]
0.5 µg/mL (≈ 1.77 µM) | Cc1cc(F)cc2c1cnn2SC(F)(Cl)Cl [Example 19]

test system: Allernaria tenuis; assay: MIC against fungi (agar), Alternaria tenuis; type: cell-based; details: Alternaria alternata, 336 h, beer wort/peptone agar, 2 weeks at 28° C., 60 to 70% relative humidity
Experimental: as §1

SMILES | MIC
FC(F)(F)Oc1ccc2cnn(SC(Cl)(Cl)Cl)c2c1 [Example 1, 6-Trifluoromethoxy-1-trichloromethylsulphenylindazole] | 150 µg/mL (≈ 427 µM)
FC(F)(F)Oc1ccc2cnn(SC(F)(Cl)Cl)c2c1 [Example 2, 6-Trifluoromethoxy-1-dichlorofluoromethylsulphenylindazole] | 75 µg/mL (≈ 224 µM)
FC(F)(F)Oc1ccc2c(cnn2SC(F)(Cl)Cl)c1 [Example 5] | 20 µg/mL (≈ 59.7 µM)

Now from value to molecule:

MIC | SMILES
200 µg/mL (≈ 541 µM) | FC(F)(F)Oc1ccc2c(cnn2SC(F)(Cl)Cl)c1Cl [Example 12]
15 µg/mL (≈ 53 µM) | Cc1cc(F)cc2c1cnn2SC(F)(Cl)Cl [Example 19]

test system: slime organisms; assay: Action against slime organisms (MIC); type: cell-based; details: 504 h; slime organisms approx. 10^6 microbes/ml, Allen's nutrient solution with 1% caprolactam, room temperature, 3 weeks
Experimental: Substances according to the invention are used in concentrations of 0.1 to 100 mg/l in each case, dissolved in a little acetone, in Allen's nutrient solution (Arch. Mikrobiol. 17, 34 to 53 (1952)) containing 0.2 g of ammonium chloride, 4.0 g of sodium nitrate, 1.0 g of dipotassium hydrogenphosphate, 0.2 g of calcium chloride, 2.05 g of magnesium sulphate and 0.02 g of iron chloride, together with 1% of caprolactam, in 4 l of sterile water. Shortly beforehand, the nutrient solution is infested with slime organisms (approx. 10^6 microbes/ml), isolated from the spinning water circulation used in the production of polyamide.

MIC | SMILES
5 to 10 µg/mL (≈ 14.9 to 29.8 µM) | FC(F)(F)Oc1ccc2c(cnn2SC(F)(Cl)Cl)c1 [Example 5]

test system: Sclerophoma pityophila; assay: MIC against fungi (agar), Sclerophoma pityophila; type: cell-based; details: Sydowia polyspora, 336 h, beer wort/peptone agar, 2 weeks at 28° C., 60 to 70% relative humidity
Experimental: as §1

SMILES | MIC
FC(F)(F)Oc1ccc2cnn(SC(Cl)(Cl)Cl)c2c1 [Example 1, 6-Trifluoromethoxy-1-trichloromethylsulphenylindazole] | 75 µg/mL (≈ 213 µM)
FC(F)(F)Oc1ccc2cnn(SC(F)(Cl)Cl)c2c1 [Example 2, 6-Trifluoromethoxy-1-dichlorofluoromethylsulphenylindazole] | 35 µg/mL (≈ 104 µM)
FC(F)(F)Oc1ccc2c(cnn2SC(F)(Cl)Cl)c1 [Example 5] | 0.75 µg/mL (≈ 2.24 µM)

Results, then the molecule that gave them:

MIC | SMILES
200 µg/mL (≈ 541 µM) | FC(F)(F)Oc1ccc2c(cnn2SC(F)(Cl)Cl)c1Cl [Example 12]
15 µg/mL (≈ 53 µM) | Cc1cc(F)cc2c1cnn2SC(F)(Cl)Cl [Example 19]

test system: Penicillium glaucum; assay: MIC against fungi (agar), Penicillium glaucum; type: cell-based; details: 336 h, beer wort/peptone agar, 2 weeks at 28° C., 60 to 70% relative humidity
Experimental: as §1

SMILES | MIC
FC1Oc2cc3c(cnn3SC(F)(Cl)Cl)cc2OC1(F)F (centres unmarked) [Example 4] | 100 µg/mL (≈ 275 µM)
Fc1cccc2c1cnn2SC(F)(Cl)Cl [1-Dichlorofluoromethylsulphenyl-4-fluoroindazole, reference compound] | 200 µg/mL (≈ 743 µM)
FC(F)(F)Oc1ccc2cnn(SC(Cl)(Cl)Cl)c2c1 [Example 1, 6-Trifluoromethoxy-1-trichloromethylsulphenylindazole] | 20 µg/mL (≈ 56.9 µM)
FC(F)(F)Oc1ccc2cnn(SC(F)(Cl)Cl)c2c1 [Example 2, 6-Trifluoromethoxy-1-dichlorofluoromethylsulphenylindazole] | 2 µg/mL (≈ 5.97 µM)
FC(F)(F)Oc1ccc2c(cnn2SC(F)(Cl)Cl)c1 [Example 5] | 20 µg/mL (≈ 59.7 µM)

Next, values leading:

MIC | SMILES
< 20 µg/mL | Cc1cc(C(F)(F)F)c2cnn(SC(F)(Cl)Cl)c2c1Cl [Example 8]
20 µg/mL (≈ 54.1 µM) | FC(F)(F)Oc1ccc2c(cnn2SC(F)(Cl)Cl)c1Cl [Example 12]
< 20 µg/mL | FC(F)(F)Sc1ccc2cnn(SC(F)(Cl)Cl)c2c1 [Example 16]
< 20 µg/mL | FC(F)(F)Sc1ccc2c(cnn2SC(F)(Cl)Cl)c1 [Example 18]
< 20 µg/mL | Cc1cc2cnn(SC(F)(Cl)Cl)c2c(C)c1C(F)(F)F [Example 15]
20 µg/mL (≈ 70.6 µM) | Cc1cc(F)cc2c1cnn2SC(F)(Cl)Cl [Example 19]
< 20 µg/mL | FC(Cl)(Cl)Sn1ncc2c(Cl)c(Cl)c(C(F)(F)F)cc21 [Example 17]
